Measurements as given in patent US12173088B2, “Anti-microbial peptides” (priority 2018, dated 2024).
In brackets after ≈: the same amount, converted by molar mass. Entries after “also recorded” stand apart in the source; their conditions may differ. Like-named read-outs stand apart in the source and are kept apart here. Ends that are not written are not given here. Peptide text beside a SMILES is read from it.

Tests used:
[1] = literature; cited from earlier work
P. aeruginosa E411-17 = assay: microbe, parasite or virus in culture; format: cell-based, Pseudomonas aeruginosa; settings: read-out: MIC P. aeruginosa E411-17
Excerpt: (§1) The bacterial strains used include the Gram-positive strains Staphylococcus aureus USA300 LAC, S. epidermidis 1457, and Bacillus subtilis 168, as well as the Gram-negative isolates Escherichia coli K12 and Acinetobacter baumannii B2367-12. Additional, drug resistance strains include Gram-positive Enterococcus faecium V286-17 (VRE) and S. aureus M838-17 (MRSA) and Gram-negative E. coli E423-17, E. coli E416-17 (ampC), and P. aeruginosa E411-17. Bacteria were cultivated in tryptic soy broth (TSB) (BD Bioscience, MD).
(§2) The antibacterial activity of peptides was evaluated using a standard broth microdilution protocol with minor modifications as described (Mishra, et al. (2012) J. Am. Chem. Soc., 134:12426-12429). In brief, logarithmic phase bacterial cultures (i.e., optical density at 600 nm≈0.5) were diluted to OD600 0.001 and partitioned into a 96-well polystyrene microplate at 90 μL per well. After treatment with 10 μL of peptide solutions two fold diluted to various concentrations, microplates were incubated at 37° C. overnight and read on a ChroMate® 4300 Microplate Reader at 630 nm (GMI, Ramsey, MN). […] To study the influence of medium conditions on the antimicrobial activity of peptides against S. aureus USA300, up to 200 mM sodium chloride (NaCl), 2 mM of calcium chloride, 5-10% of human serum, mouse plasma, fluid, or supernatants of tissue homogenates were included into the assays.
(§3) The bacterial strains used include the Gram-positive bacteria methicillin-resistant Staphylococcus aureus USA300, Enterococcus faecium V286-17 (VRE), S. aureus M838-17 (MRSA) and Gram-negative bacteria E. coli E423-17, E416-7 (ampC), P. aeruginosa E411-17, PA01, K. pneumoniae E406-17, ATCC13883, and A. baumannii B26-16. Bacteria were cultivated in tryptic soy broth (TSB) from BD Bioscience.
(§4) The antibacterial activity of peptides was evaluated using a standard broth microdilution protocol with minor modifications (Mishra, et al. (2017) Acta Biomater., 49:316-328). In brief, logarithmic phase bacterial cultures (i.e., optical density at 600 nm≈0.5) were diluted to 0.001 OD and aliquoted 90 μL per well into a 96-well polystyrene microplate. Added 10 μL peptides per well with various concentrations, plates were incubated at 37° C., overnight. Post incubation the plates are read at 630 nm using a ChroMate® Microplate Reader (GMI). […] To study the influence of medium conditions on the antimicrobial activity of peptides against S. aureus USA300 at different pHs (6.8, 7.2, and 8.0), 150 mM sodium chloride (NaCl), 5-10% of human serum, mouse plasma, and peritoneal fluid were included into the assays.

E. coli E423-17 = assay: microbe, parasite or virus in culture; format: cell-based, Escherichia coli; settings: read-out: MIC E. coli E423-17
Excerpt: as §1, §2, §3, §4

K. pneumoniae E406-17 = assay: microbe, parasite or virus in culture; format: cell-based, Klebsiella pneumoniae; settings: read-out: MIC K. pneumoniae E406-17
Procedure: as §2, §3, §4

A. baumannii B26-16 = assay: microbe, parasite or virus in culture; format: cell-based, Acinetobacter baumannii; settings: read-out: MIC A. baumannii B26-16
Procedure: as §3, §4

S. aureus M838-17 (MRSA) = assay: microbe, parasite or virus in culture; format: cell-based, Staphylococcus aureus; settings: Staphylococcus aureus, MRSA; Table 7; by weight; read-out: MIC S. aureus M838-17 (MRSA)
Outline: (§5)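 Broth microdilution: log-phase cultures in tryptic soy broth diluted to OD600 0.001, exposed to two-fold diluted peptides at 37° C overnight, growth read at 630 nm. Medium effects on S. aureus USA300 tested with up to 200 mM NaCl, 2 mM CaCl2, 5-10% human serum, mouse plasma, fluids or tissue homogenate supernatants.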

S. aureus USA300 [2] = assay: microbe, parasite or virus in culture; format: cell-based, Staphylococcus aureus; settings: for MIC: read-out: MIC S. aureus USA300 (MRSA)
Outline: as §5

E. faecium V286-17 (VRE) = assay: microbe, parasite or virus in culture; format: cell-based, Enterococcus faecium; settings: read-out: MIC E. faecium V286-17 (VRE)
Excerpt: as §1, §2, §3, §4

S. aureus USA300 [3] = assay: Propidium iodide membrane permeation; format: cell-based, Staphylococcus aureus
Procedure: The membrane permeation experiment was performed as described with minor modifications (Wang, et al. (2005) J. Biol. Chem., 280:5803-5811). Serially diluted 10× peptides (10 μL each well) were created in 96-well microtiter plates. Propidium iodide (2 μL) at a fixed concentration of 20 μM were added to each well followed by 88 μL of the S. aureus USA300 culture (a final OD600˜0.1 in TSB media). The plate was incubated at 37° C. with continuous shaking at 100 rpm in a FLUOstar® Omega (BMG LABTECH, Cary, NC) microplate reader. The fluorescence from the plate was read every 5 minutes for a total duration of 2 hours with an excitation and emission wavelengths of 584 nm and 620 nm, respectively. Plots were made using average values of duplicated experiments with MARS software.
The experiment was performed as described previously with minor modifications (Mishra, et al. (2017) Acta Biomater., 49:316-328). Serially diluted 10× peptides (10 μL each well) were created in 96-well microtiter plates. Propidium iodide (2 μL) at a fixed concentration of 20 μM were added to each well followed by 88 μL of the S. aureus USA300 culture (a final OD600˜0.1 in TSB media or PBS). The plate was incubated at 37° C. with continuous shaking at 100 rpm in a FLUOstar® Omega (BMG LABTECH) microplate reader. The samples fluorescence was read at every 5 minutes for 24 cycles with an excitation and emission wavelengths of 584 nm and 620 nm, respectively. Plots generated using average values from the experiments using GraphPad Prism.

S. aureus USA300 [4] = format: in vivo, Staphylococcus aureus; settings: different tissues; single i.p. injection; positive control
Procedure: Female C57BL/6 mice (6 weeks old) were purchased from Charles River. After environment adaptation, mice were induced neutropenic by administering two doses of cyclophosphamide on day 1 (150 mg/kg) and Day 4 (100 mg/kg). This cyclophosphamide administration was skipped for experiments using non-neutropenic mice (i.e., normal mice). On day 5, mice were infected with S. aureus USA300 LAC (˜2×10^6 CFU per mouse) via intraperitoneal injection (i.p.). For the treatment groups, mice were i.p. treated 2 hours post infection with peptides at a single dose of 5 mg/kg. Both positive and negative controls were included. At the end of the experiments, all animals were sacrificed according to institutional guidelines. Organs, including spleen, lung, kidney, and liver, were harvested, weighed, placed in sterile PBS and stored on ice. Harvested animal organs were subsequently homogenized using homogenizer (Omni, Kennesaw, GA). Proper dilutions, especially for untreated control groups, were made to get countable colonies. Blood agar plates were then incubated overnight at 37° C. The bacteria grown on plates were enumerated and plotted using the Graph pad Prism software.
Female C57BL/6 or Balb/c mice (6 weeks old) were purchased from Charles River. The mice were induced neutropenic by administering two doses of cyclophosphamide on day 1 (150 mg/kg) and Day 4 (100 mg/kg). On day 5, mice were infected with S. aureus USA300 (˜2×10^6 CFU per mouse) or K. pneumoniae E406-17 (˜5×10^5 CFU per mouse) via intraperitoneal injection (i.p.). For the treatment groups, mice were i.p. or intravenous (i.v.) treated 2 hours post infection with peptides at a single dose of 5, 10, or 15 mg/kg. Both positive and negative controls are used. At the end of the experiments, all animals were sacrificed according to institutional guidelines. […] The CFU of each mouse was plotted as an individual point and error bars represent the deviation within the experimental group. * p<0.05 ** p<0.01, ***p<0.001 and NS represents no significance (determined by Mann-Whitney test).

E. coli ATCC 25922 = format: cell-based, Escherichia coli; settings: ATCC 25922
Outline: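 Broth microdilution: log-phase E. coli diluted to OD600 0.001 and exposed to two-fold serial peptide dilutions overnight at 37 °C. Growth read at 630 nm.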

K. pneumoniae ATCC 13883 = format: cell-based, Klebsiella pneumoniae; settings: ATCC 13883
Outline: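 Broth microdilution in tryptic soy broth: log-phase cultures (OD600 ≈0.5) diluted to OD600 0.001, given two-fold peptide dilutions, incubated overnight at 37° C. Growth read at 630 nm.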

[5] = Pseudomonas aeruginosa, E41117, Table 14
[6] = Escherichia coli, E42317, Table 14
[7] = Klebsiella pneumoniae, E40617, Table 14
[8] = Acinetobacter baumannii, B2616, Table 14
[9] = Staphylococcus aureus, MRSA / USA300, Table 14
[10] = Enterococcus faecium, VRE, Table 7
[11] = Enterococcus faecium, VRE, Table 14

MIC (P. aeruginosa E411-17; [5])	MIC (E. coli E423-17; [6])	MIC (K. pneumoniae E406-17; [7])	MIC (A. baumannii B26-16; [8])	MIC (S. aureus M838-17 (MRSA))	MIC (S. aureus USA300 [2]; [9])	MIC (E. faecium V286-17 (VRE); [10])	MIC (E. faecium V286-17 (VRE); [11])	Compound	In vivo outcome [1]	Propidium iodide membrane permeation (S. aureus USA300 [3])	also measured
–	–	–	–	–	–	–	–	ALWMTLLKKVLKAAAK (not fully specified (C-terminus)) [DS4(1-16)]	failure	–	–
> 8 µM	> 8 µM	> 8 µM	> 8 µM	1.56 µM (≈ 1.09 µg/mL)	0.25 µM (≈ 0.174 µg/mL)	12.5 µM (≈ 8.72 µg/mL)	> 8 µM	CO[C@H]1/C=C/O[C@@]2(C)Oc3c(C)c(O)c4c(O)c(cc(O)c4c3C2=O)NC(=O)/C(C)=C\C=C\[C@H](C)[C@H](O)[C@@H](C)[C@@H](O)[C@@H](C)[C@H](OC(C)=O)[C@@H]1C [Rifamycin, reference compound]	–	failed to permeate	–
–	–	–	–	–	–	–	–	RPDKPRPYLPRPRPPRPVR (not fully specified (C-terminus)) [Peptide A3-APO]	showed in vivo efficacy	–	–
–	–	–	–	–	–	–	–	GIGKFLKKAKKFGKAFVKILKK (not fully specified (C-terminus)) [MSI-78]	failure	–	–
> 8 µM	> 8 µM	> 8 µM	> 8 µM	0.78 µM (≈ 1.26 µg/mL)	4 µM (≈ 6.48 µg/mL)	3.1 µM (≈ 5.02 µg/mL)	4 µM (≈ 6.48 µg/mL)	CCCCCCCCCC(=O)N[C@@H](Cc1c[nH]c2ccccc12)C(=O)N[C@H](CC(N)=O)C(=O)N[C@@H](CC(=O)O)C(=O)N[C@@H]1C(=O)NCC(=O)N[C@@H](CCCN)C(=O)N[C@@H](CC(=O)O)C(=O)N[C@H](C)C(=O)N[C@@H](CC(=O)O)C(=O)NCC(=O)N[C@H](CO)C(=O)N[C@@H]([C@H](C)CC(=O)O)C(=O)N[C@@H](CC(=O)c2ccccc2N)C(=O)O[C@@H]1C [Daptomycin]	–	fluorescence increase; also recorded: permeated bacterial membranes	Decrease in bacterial burden (S. aureus USA300 [4]): 1-4 logs
–	–	–	–	–	–	–	–	CC[C@H](C)[C@H](NC(=O)[C@H](CCCCN)NC(=O)[C@H](CCCNC(=N)N)NC(=O)[C@H](CC(C)C)NC(=O)[C@H](Cc1c[nH]c2ccccc12)NC(=O)[C@H](Cc1c[nH]c2ccccc12)NC(=O)[C@@H](N)Cc1c[nH]c2ccccc12)C(=O)N[C@@H](Cc1c[nH]c2ccccc12)C(N)=O [WW291, WWWLRKIW] (H-WWWLRKIW-NH2; N-terminus and C-terminus assumed)	–	permeate bacterial membranes	MIC (P. aeruginosa E411-17; E411-17): >32 µM; MIC (E. coli E423-17; E423-17): 8 µM (≈ 10.2 µg/mL); MIC E. coli ATCC 25922 (E. coli ATCC 25922): 6.2 to 12.5 µM; MIC (K. pneumoniae E406-17; E406-17): ≥32 µM; MIC (A. baumannii B26-16; B26-16): 16 µM (≈ 20.4 µg/mL); MIC S. aureus USA 300 (S. aureus USA300 [2]; USA300): 3.1 µM (≈ 3.94 µg/mL); MIC (S. aureus USA300 [2]; USA300): 4 µM (≈ 5.09 µg/mL); MIC K. pneumoniae ATCC 13883 (K. pneumoniae ATCC 13883): 12.5 µM (≈ 15.9 µg/mL); MIC (E. faecium V286-17 (VRE); V286-17 (VRE)): 4 µM (≈ 5.09 µg/mL)
